Values of other authors, collected in patent publication US12414981B2, “JNK inhibitors for use in treating and preventing neurodegenerative disorders” (Northwestern University, priority 2021, dated 2025).

Conditions: in vivo

- crosses the blood-brain barrier: crosses the blood-brain barrier
Structure (SMILES): Oc1c2ccccc2c2c3c(cccc13)N=N2 [SP600125, anthra [1,9]pyrazol-6 (2H)-one]
